Experimental data from PMC5652740, “Inhibition of HIV-1 infection in humanized mice and metabolic stability of protein phosphatase-1-targeting small molecule 1E7-03” (Oncotarget, 2017).

Tests used:
[1] = Stability of 1E7-03 in cell culture media and PBS; assay type: physicochemical
Experimental: CEM T cells were seeded in 24-well plates (200,000 cells/well). On the next day cells were treated with 10 μM 1E7-03. Media (100 μl) was collected at different time points during 48 hrs and total protein was precipitated by 400 μl of cold acetone and centrifuged at 13,000 × g for 5 min. The supernatant was collected and evaporated to dryness using a SpeedVac concentrator. The dry pellet was reconstituted in 100 μl of acetonitrile for LC/FT-MS analysis. In addition, 1E7-03 (10 μM) was incubated at 37°C in serum-free media and complete media without cell treatment. Media of 100 μl was collected after 24 hrs of incubation. The stabilities of 1E7-03 (10 μM) at phosphate buffered saline (PBS) and PBS with the addition of 10% bovine serum albumin were also investigated at 37°C incubation. Samples (100 μl) were collected at different time points up to 24 hrs. All samples were prepared by the same above-mentioned procedure for LC/FT-MS analysis.

[2] = tested on: PP1 regulatory subunit Sds22; test: Label free quantitative proteomics of HIV-1 infected CEM T cells; assay type: cell-based; settings: 10 μM, SIEVE quantification
Experimental: CEM T cells were infected with VSVG-pseudotyped pNL4-3.Luc.R-E-virus (HIV-1-LUC-G) and cultured in 100 mm culture plates (1.25 × 10^6 cells/ml) containing 10 ml of supplemented RPMI media at 37°C and 5% CO2. The cells were treated with 10 μM of 1E7-03 or vehicle (DMSO) and incubated overnight. Cells were collected and washed three times with PBS. To obtain cell lysates, the cells were suspended in 1 ml cold whole cell lysis buffer (50 mM Tris-HCl, pH 7.5, 0.5 M NaCl, 1% NP-40, 0.1% SDS) with protease and phosphatase inhibitors (P044-1ML, Sigma Aldrich). The cytosolic protein fraction was isolated by centrifugation at 13,000xg for 30 min at 4 °C to remove cellular debris. […]
Tryptic peptides were purified by Pierce™ Graphite Spin Columns following manufacturer's instructions, resuspended in water with 0.1% formic acid (v/v) and analyzed by an LTQ Orbitrap XL mass spectrometer (Thermo Fisher Scientific) coupled to a Prominence Nano LC (Shimadzu) using the Xcalibur version 2.7.0 (Thermo Scientific). […]
LC-MS/MS raw data were searched by Proteome Discoverer 1.4 using Sequest search engine (Thermo Fisher Scientific), against the Uniprot Human database (6/10/2016, 135431 sequences) at a false discovery cut off ≤1%. […] The label-free quantification of peptides eluting between 10 and 80 min was performed with SIEVE 2.1 software (Thermo Scientific). […]

[3] = 1E7-03 degradation in monkey plasma; assay type: in vitro ADME; settings: 37°C
Experimental: (§1) 1E7-03 dissolved in DMSO (10 mM stock solution) was mixed with mouse plasma (Sigma-Aldrich), guinea pig plasma (Sigma-Aldrich), ferret plasma (BioreclamationIVT), monkey plasma (courtesy of Binhua Ling, PhD, Tulane University) and human plasma (collected from heathy volunteer by the Center for Sickle Cell Disease at Howard University) to the final concentration of 10 μM and incubated at 37°C. Aliquots were collected at different time points for up to 24 hrs. The resulting sample (60 μl) was mixed with 240 μl of cold acetone, vortexed for 2 min, kept at –20°C for 30 min, and then the precipitated protein was removed by centrifugation at 13,000 × g for 5 min. The supernatant was transferred to a clean test tube and evaporated to dryness using a SpeedVac concentrator. The residue reconstituted in 60 μl of acetonitrile for LC/FT-MS analysis. All experiments were run parallel in triplicates.

[4] = 1E7-03 degradation in human plasma; assay type: in vitro ADME; settings: 37°C
Experimental: as §1

CEM T cells = test: Cytotoxicity with calcein-AM; assay type: cell-based; settings: in words
Experimental: To assess cytotoxicity with calcein, media was removed and the cells washed with PBS in order to remove serum esterase activity that may cause an increase in fluorescence through the hydrolysis of calcein-AM. Cells were then supplemented with 0.2 μM calcein-AM (Molecular Probes, Invitrogen) for 10 min at 37°C. Fluorescence was measured using the luminescence spectrometer described above implementing 495 nm excitation and 515 nm emission filters.

SMILES	Peak Area (%), Complete media ([1]; 10 μM 1E7-03 in media with 10% FBS, 37°C, 24 hrs, 1E7-03 remaining and DPs formed)	Peak Area (%), FBS free media ([1]; 10 μM 1E7-03 in serum free media, 37°C, 24 hrs, 1E7-03 remaining and DPs formed)	stability in complete media ([1]; 10 μM, 37°C, 48 hrs, in words)	remaining at 4 h, 10 µM ([1]; PBS with 10% bovine serum albumin, 4 hrs, read-out: % remaining intact in PBS with 10% BSA)	remaining at 24 h, 10 µM ([1]; PBS with 10% bovine serum albumin, 24 hrs, read-out: % remaining in PBS with 10% BSA)	% of compound degraded in PBS ([1]; PBS, 37°C, 4 hrs)	remaining at 48 h, 10 µM ([1]; human, culture media of CEM T cells, 48 hrs of incubation, read-out: % remained intact in cell culture media)	Sds22 Ratio 1E7-03/Control [2]	α-tubulin Ratio 1E7-03/Control [2]	remaining at 24 h, 10 µM [3]	remaining at 24 h, 10 µM [4]	toxicity in CEM T cells compared to 1E7-03 (CEM T cells)
CCNC(=O)NC(=O)C(C)OC(=O)c1c2c(nc3ccccc13)/C(=C/c1ccc(OC)c(OC)c1)CC2 (stereo not drawn) [1E7-03]	98.6%	7%	remained stable and did not undergo degradation	75%	> 50%	over 80%	> 90%	0.804	0.936	> 50%	> 50%	–
COc1ccc(/C=C2\CCCc3c2nc2ccccc2c3C(=O)OC(C)C(=O)OC(C)(C)C)cc1OC (stereo not drawn) [DP1-07]	–	–	–	–	–	–	–	–	–	–	–	reduced toxicity
